# Laboratory results taken from patent US20250352658A1, “COMBINATION THERAPY USING ANTIBODY-DRUG CONJUGATES” (ADC THERAPEUTICS SA, priority 2021, published 2025).
# Square brackets hold non-standard residues; d marks the D form. Peptide text beside a SMILES is read from it. * marks the point of attachment. Dolaproine = CO[C@@H]([C@@H]1CCCN1)[C@@H](C)C(=O)O; Dil = CC[C@H](C)[C@H](NC)[C@@H](CC(=O)O)OC; X1 = C[C@@H](N*)[C@@H](O)c1ccccc1; NMeV = CN[C@H](C(=O)O)C(C)C
# Experiments:
# TMD8 cells = assay: CellTiterGlo viability assay, SG3199 and MMAE combination, TMD8; assay type: cell-based; conditions: for CI (combination index) / Fa (fraction affected): 24 hours
# Description: We tested a combination of the warheads alone used in CD19xADC (PBD SG3199) and CD79bxADC (monomethyl auristatin E (MMAE)). This was performed essentially as per Example 1, in TMD8 cells. Cells were seeded at a density of 50,000 cells/mL. […]
# Cells were incubated for 24 hours and then viability was measured with CellTiterGlo assay.
# For analysis of the results, data were first blank corrected (average of blank of the 3 replicates was subtracted from each data value). For GraphPad analysis, each replicate was normalized over the untreated cells (average of the 3 replicates). Data were analysed by GraphPad Prism to generate a dose response curve with Log drug concentration on X-axis and cell viability (%) on Y-axis. For CalcuSyn analysis, the average of the 3 replicates was corrected over the untreated cells.
# Ramos xenograft = assay: In vivo efficacy, Ramos xenograft model; design: species or system mice
# Description: A further in vivo study was conducted, similar to Example 2 but using a Ramos xenograft model.
# Female severe combined immunodeficient mice (Fox Chase SCID®, CB17/Icr-Prkdc^scid/IcrIcoCrl, Charles River) were eight weeks old with a body weight (BW) range of 15.6 to 22.9 g on Day 1 of the study.
# On the day of implant, 1×10^7 Ramos cells (0.1 mL suspension) were subcutaneously implanted into the right flank of each test animal and tumors were monitored as their volumes approached the target range. All vehicle and ADC doses were administered i.v. via tail vein injection once on Day 1 (qd×1). The dosing volume was 0.2 mL per 20 grams of body weight (10 mL/kg) and was scaled to the body weight of each individual animal.
# Fourteen days after tumor implantation, designated as Day 1 of the study, the animals were sorted into groups (n=10) with individual tumor volumes of 108 to 144 mm^3 and group mean tumor volumes of 130 to 134 mm^3.
# (§1) Tumors were measured using calipers twice per week, and each animal was euthanized when its tumor reached the endpoint volume of 1000 mm^3 or at the end of the study, whichever came first. The study ended on Day 62.
# WSU-DLCL2 xenograft = assay: In vivo efficacy, WSU-DLCL2 xenograft model; design: species or system mice
# Description: Female severe combined immunodeficient mice (Fox Chase SCID®, CB17/Icr-Prkdc^scid/IcrIcoCrl, Charles River) were nine weeks old with a body weight (BW) range of 17.3 to 24.1 g on Day 1 of the study.
# On the day of implant, 1×10^7 WSU-DLCL2 cells (0.1 mL suspension) were subcutaneously implanted into the right flank of each test animal and tumors were monitored as their volumes approached the target range.
# Ten days after tumor implantation, designated as Day 1 of the study, the animals were sorted into groups (n=10) with individual tumor volumes of 88 to 126 mm^3 and group mean tumor volumes of 109 to 111 mm^3.
# All vehicle and ADC doses were administered i.v. via tail vein injection once on Day 1 (qd×1). The dosing volume was 0.2 mL per 20 grams of body weight (10 mL/kg) and was scaled to the body weight of each individual animal.
# as §1
# Tumors were measured in two dimensions using calipers, and volume was calculated using the formula
# Tumor Volume (mm^3)=w^2×l/2, where w=width and l=length, in mm, of the tumor.
# Tumor weight may be estimated with the assumption that 1 mg is equivalent to 1 mm^3 of tumor volume.
# [1] = SG3199 0.06 pM + MMAE 0.08 ng/ml
# [2] = SG3199 0.06 pM + MMAE 0.2 ng/ml
# [3] = SG3199 0.06 pM + MMAE 0.6 ng/ml
# [4] = SG3199 0.06 pM + MMAE 1.9 ng/ml
# [5] = SG3199 0.06 pM + MMAE 5.6 ng/ml
# [6] = SG3199 0.23 pM + MMAE 0.08 ng/ml
# [7] = SG3199 0.23 pM + MMAE 0.2 ng/ml
# [8] = SG3199 0.23 pM + MMAE 0.6 ng/ml
# [9] = SG3199 0.23 pM + MMAE 1.9 ng/ml
# [10] = SG3199 0.23 pM + MMAE 5.6 ng/ml
# [11] = SG3199 0.90 pM + MMAE 0.08 ng/ml
# [12] = SG3199 0.90 pM + MMAE 0.2 ng/ml
# [13] = SG3199 0.90 pM + MMAE 0.6 ng/ml
# [14] = SG3199 0.90 pM + MMAE 1.9 ng/ml
# [15] = SG3199 0.90 pM + MMAE 5.6 ng/ml
# [16] = SG3199 3.6 pM + MMAE 0.08 ng/ml
# [17] = SG3199 14.4 pM + MMAE 0.08 ng/ml
# [18] = SG3199 14.4 pM + MMAE 0.2 ng/ml
# [19] = SG3199 14.4 pM + MMAE 0.6 ng/ml
# [20] = SG3199 14.4 pM + MMAE 1.9 ng/ml
# [21] = SG3199 14.4 pM + MMAE 5.6 ng/ml
# [22] = SG3199 57.5 pM + MMAE 0.08 ng/ml
# [23] = SG3199 57.5 pM + MMAE 0.2 ng/ml
# [24] = SG3199 57.5 pM + MMAE 0.6 ng/ml
# [25] = SG3199 57.5 pM + MMAE 1.9 ng/ml
# [26] = SG3199 57.5 pM + MMAE 5.6 ng/ml
# [27] = SG3199 230 pM + MMAE 0.08 ng/ml
# [28] = CD19xADC 0.3 mg/kg i.v. once on Day 1, n=10
# [29] = CD19xADC 0.6 mg/kg i.v. once on Day 1, n=10
# [30] = CD19xADC 0.25 mg/kg i.v. once on Day 1, n=10
# [31] = CD19xADC 0.5 mg/kg i.v. once on Day 1, n=10
compound,measurement,setting,value
CC[C@H](C)[C@@H]([C@@H](CC(=O)N1CCC[C@H]1[C@H](OC)[C@@H](C)C(=O)N[C@H](C)[C@@H](O)c1ccccc1)OC)N(C)C(=O)[C@@H](NC(=O)[C@@H](NC)C(C)C)C(C)C.COc1cc2c(cc1OCCCCCOc1cc3c(cc1OC)C(=O)N1C=C(C)C[C@H]1C=N3)N=C[C@@H]1CC(C)=CN1C2=O [SG3199 + MMAE] (H-[NMeV]V[Dil][Dolaproine]-X1),CI (combination index),TMD8 cells; [1],1.65
same,Fa (fraction affected),TMD8 cells; [1],0.12
same,CI (combination index),TMD8 cells; [2],2.06
same,Fa (fraction affected),TMD8 cells; [2],0.13
same,CI (combination index),TMD8 cells; [3],0.53
same,Fa (fraction affected),TMD8 cells; [3],0.27
same,CI (combination index),TMD8 cells; [4],0.79
same,Fa (fraction affected),TMD8 cells; [4],0.32
same,CI (combination index),TMD8 cells; [5],1.23
same,Fa (fraction affected),TMD8 cells; [5],0.38
same,CI (combination index),TMD8 cells; [6],434.19
same,Fa (fraction affected),TMD8 cells; [6],0.05
same,CI (combination index),TMD8 cells; [7],2.22
same,Fa (fraction affected),TMD8 cells; [7],0.14
same,CI (combination index),TMD8 cells; [8],0.40
same,Fa (fraction affected),TMD8 cells; [8],0.29
same,CI (combination index),TMD8 cells; [9],1.18
same,Fa (fraction affected),TMD8 cells; [9],0.29
same,CI (combination index),TMD8 cells; [10],0.98
same,Fa (fraction affected),TMD8 cells; [10],0.40
same,CI (combination index),TMD8 cells; [11],0.58
same,Fa (fraction affected),TMD8 cells; [11],0.19
same,CI (combination index),TMD8 cells; [12],2.08
same,Fa (fraction affected),TMD8 cells; [12],0.16
same,CI (combination index),TMD8 cells; [13],0.29
same,Fa (fraction affected),TMD8 cells; [13],0.31
same,CI (combination index),TMD8 cells; [14],0.83
same,Fa (fraction affected),TMD8 cells; [14],0.32
same,CI (combination index),TMD8 cells; [15],0.85
same,Fa (fraction affected),TMD8 cells; [15],0.41
same,CI (combination index),TMD8 cells; [16],5.16
same,Fa (fraction affected),TMD8 cells; [16],0.16
same,CI (combination index),TMD8 cells; SG3199 3.6 pM + MMAE 0.2 ng/ml,69.07
same,Fa (fraction affected),TMD8 cells; SG3199 3.6 pM + MMAE 0.2 ng/ml,0.11
same,CI (combination index),TMD8 cells; SG3199 3.6 pM + MMAE 0.6 ng/ml,1.26
same,Fa (fraction affected),TMD8 cells; SG3199 3.6 pM + MMAE 0.6 ng/ml,0.23
same,CI (combination index),TMD8 cells; SG3199 3.6 pM + MMAE 1.9 ng/ml,1.36
same,Fa (fraction affected),TMD8 cells; SG3199 3.6 pM + MMAE 1.9 ng/ml,0.28
same,CI (combination index),TMD8 cells; SG3199 3.6 pM + MMAE 5.6 ng/ml,1.93
same,Fa (fraction affected),TMD8 cells; SG3199 3.6 pM + MMAE 5.6 ng/ml,0.34
same,CI (combination index),TMD8 cells; [17],12.16
same,Fa (fraction affected),TMD8 cells; [17],0.17
same,CI (combination index),TMD8 cells; [18],18.45
same,Fa (fraction affected),TMD8 cells; [18],0.16
same,CI (combination index),TMD8 cells; [19],0.60
same,Fa (fraction affected),TMD8 cells; [19],0.29
same,CI (combination index),TMD8 cells; [20],1.32
same,Fa (fraction affected),TMD8 cells; [20],0.29
same,CI (combination index),TMD8 cells; [21],1.12
same,Fa (fraction affected),TMD8 cells; [21],0.39
same,CI (combination index),TMD8 cells; [22],0.22
same,Fa (fraction affected),TMD8 cells; [22],0.34
same,CI (combination index),TMD8 cells; [23],0.39
same,Fa (fraction affected),TMD8 cells; [23],0.33
same,CI (combination index),TMD8 cells; [24],0.23
same,Fa (fraction affected),TMD8 cells; [24],0.37
same,CI (combination index),TMD8 cells; [25],0.30
same,Fa (fraction affected),TMD8 cells; [25],0.42
same,CI (combination index),TMD8 cells; [26],0.37
same,Fa (fraction affected),TMD8 cells; [26],0.49
same,CI (combination index),TMD8 cells; [27],0.03
same,Fa (fraction affected),TMD8 cells; [27],0.47
same,CI (combination index),TMD8 cells; SG3199 230 pM + MMAE 0.2 ng/ml,0.02
same,Fa (fraction affected),TMD8 cells; SG3199 230 pM + MMAE 0.2 ng/ml,0.51
same,CI (combination index),TMD8 cells; SG3199 230 pM + MMAE 0.6 ng/ml,0.03
same,Fa (fraction affected),TMD8 cells; SG3199 230 pM + MMAE 0.6 ng/ml,0.54
same,CI (combination index),TMD8 cells; SG3199 230 pM + MMAE 1.9 ng/ml,0.04
same,Fa (fraction affected),TMD8 cells; SG3199 230 pM + MMAE 1.9 ng/ml,0.59
same,CI (combination index),TMD8 cells; SG3199 230 pM + MMAE 5.6 ng/ml,0.09
same,Fa (fraction affected),TMD8 cells; SG3199 230 pM + MMAE 5.6 ng/ml,0.62
same,median Chou-Talalay combination index (CI),"TMD8 cells; TMD8, 24 hours, <0.9 indicates synergy",0.85
CD19xADC: anti-CD19 ADC; Loncastuximab tesirine is the CD19xADC used,CR (complete response),Ramos xenograft; [28],0
same,PR (partial response),Ramos xenograft; [28],0
same,TFS (tumour free survivor),Ramos xenograft; [28],0
same,CR (complete response),Ramos xenograft; [29],7
same,PR (partial response),Ramos xenograft; [29],0
same,TFS (tumour free survivor),Ramos xenograft; [29],7
same,CR (complete response),WSU-DLCL2 xenograft; [30],0
same,PR (partial response),WSU-DLCL2 xenograft; [30],3
same,TFS (tumour free survivor),WSU-DLCL2 xenograft; [30],0
same,CR (complete response),WSU-DLCL2 xenograft; [31],5
same,PR (partial response),WSU-DLCL2 xenograft; [31],2
same,TFS (tumour free survivor),WSU-DLCL2 xenograft; [31],3
